These results are taken from patent US11207431B2, “HDAC6 inhibitors and imaging agents” (The General Hospital Corporation, priority 2017, dated 2021).

Data set [1] has as its target HDAC6 (Homo sapiens (Human), UniProt Q9UBN7). Kind of data set: IC50 assay by Nanosyn (Caliper microfluidics mobility shift detection). Conditions: Nanosyn (Table 1A). In kind it is biochemical.
Data set [2] deals with HDAC6 (Rattus norvegicus (Rat), UniProt A0A8I6GM68). The data set can be described thus: Autoradiography competition with radiolabeled Example 2 on rat brain slices. Conditions: Tubastatin A at 100 μM. In kind it is binding, Sprague-Dawley rat. The method, then:
Sagittal slices of Sprague-Dawley rat brains were sectioned (10 μm) with a cryostat (Thermo Scientific HM550) and mounted onto ColorFrost Plus microscope slides (Fisher Scientific 12-550-18) and stored at −20° C. […] After 15 min, 50 μCi of the radiolabeled compound of Example 2 was added to each bath. After 15 minutes, all slides were washed by dipping 10× into buffer and subsequently submerged in 50 mL baths of buffer at 4° C. for 5 minutes. The slides were dried at 35° C. in a vacuum chamber. A phosphorus screen (Perkin Elmer 7001723) was exposed with the slides for 45 minutes and subsequently imaged with a Cyclone Plus Storage Phosphor (Perkin Elmer) detector. ImageJ was used to apply a Gaussian blur (3.0 radius) smoothing and a lookup table (Royal) with equivalent thresholds for brightness was applied. Raw intensity values from gray and white matter were quantified with the ImageJ measurement tool.

Data set [3] is described as follows: Brain penetrance comparison. Conditions: in vivo.
Data set [4] relates to Human iPSC-derived neural progenitor cells. The data set can be described thus: Acetylation level assay (Western blot). In kind it is cell-based. Conditions: 6 h at 37° C.; for Histone acetylation (H3K9 and H4K12): 10 μM; for amount of cellular acetyl-α-Tubulin: other compounds 10 μM. In general terms: Immunoblotting shows a protein as a band on a membrane.
The next data set in a line: PET/CT imaging in rats. In kind it is in vivo, Sprague-Dawley rats. The method, then: 8 male Sprague-Dawley rats (Charles River Laboratories) were used for PET imaging. […] For intravenous administration, a catheter with an extension line was placed in a lateral tail vein. Each animal received a bolus injection of either vehicle (1:1:8 DMSO/Tween80/saline) or blocking agent in solution (1 mg/kg, 1 mg/mL in 1:1:8 DMSO/Tween80/saline) immediately prior to injection of the radiotracer.
After injection of a radiotracer bolus ([…] Example 2) a 90 min dynamic PET scan was acquired in pairs for all animals. PET scans were performed on a GammaMedica Triumph PET/CT/SPECT scanner, corrected for attenuation with a μ-map derived from the corresponding CT image, which was acquired immediately following the PET scan. The dynamic PET data was binned into 38 timeframes (8×15 s, 8×1 min, 10×2 min, 12×5) and reconstructed individually via an iterative MLEM (maximum likelihood expectation maximization) algorithm in 16 iterations.
PET images were to the CT image acquired from the same animal using AMIDE Data sets were cropped and all further image analysis was conducted using PMOD 3.3 (PMOD Technologies, Zurich, Switzerland). For maximum consistency, the data were coregistered to the Schiffer Px Rat rat brain template and data was derived from a whole brain VOI (volumes of interest) for time activity curves.

Broadly, the IC50 is the concentration needed to halve the response being measured.

Chain of HDAC6 (Homo sapiens (Human), UniProt Q9UBN7) (Q9UBN7 whole entry): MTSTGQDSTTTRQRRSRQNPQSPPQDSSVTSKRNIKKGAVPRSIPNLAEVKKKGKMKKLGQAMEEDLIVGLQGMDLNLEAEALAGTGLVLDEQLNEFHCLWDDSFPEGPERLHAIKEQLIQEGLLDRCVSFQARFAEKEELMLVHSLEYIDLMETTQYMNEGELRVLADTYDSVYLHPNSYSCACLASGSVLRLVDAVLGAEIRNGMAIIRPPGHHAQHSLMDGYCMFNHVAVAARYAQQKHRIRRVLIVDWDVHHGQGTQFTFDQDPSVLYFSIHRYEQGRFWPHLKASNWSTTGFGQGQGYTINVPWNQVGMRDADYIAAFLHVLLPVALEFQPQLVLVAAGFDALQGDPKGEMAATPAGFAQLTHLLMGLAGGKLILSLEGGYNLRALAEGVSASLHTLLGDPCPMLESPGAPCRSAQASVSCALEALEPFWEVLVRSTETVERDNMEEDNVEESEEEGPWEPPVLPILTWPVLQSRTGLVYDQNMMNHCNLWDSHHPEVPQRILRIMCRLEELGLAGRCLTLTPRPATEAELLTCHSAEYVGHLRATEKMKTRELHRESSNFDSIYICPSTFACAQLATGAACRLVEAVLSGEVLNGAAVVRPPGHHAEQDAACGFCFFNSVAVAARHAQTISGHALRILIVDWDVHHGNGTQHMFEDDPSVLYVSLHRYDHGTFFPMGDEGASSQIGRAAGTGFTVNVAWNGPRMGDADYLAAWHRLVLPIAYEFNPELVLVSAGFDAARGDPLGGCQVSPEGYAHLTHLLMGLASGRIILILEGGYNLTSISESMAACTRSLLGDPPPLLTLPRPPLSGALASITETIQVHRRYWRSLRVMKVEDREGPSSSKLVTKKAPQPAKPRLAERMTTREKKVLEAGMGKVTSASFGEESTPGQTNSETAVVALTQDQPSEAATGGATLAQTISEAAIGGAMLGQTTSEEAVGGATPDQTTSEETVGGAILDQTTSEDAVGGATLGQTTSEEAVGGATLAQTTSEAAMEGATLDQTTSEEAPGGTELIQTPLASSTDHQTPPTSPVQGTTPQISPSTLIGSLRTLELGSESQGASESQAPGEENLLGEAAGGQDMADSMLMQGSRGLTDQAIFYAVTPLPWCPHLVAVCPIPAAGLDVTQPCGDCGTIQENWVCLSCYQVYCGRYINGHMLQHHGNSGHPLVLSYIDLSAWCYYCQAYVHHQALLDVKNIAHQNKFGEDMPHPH
Chain of HDAC6 (Rattus norvegicus (Rat), UniProt A0A8I6GM68) (A0A8I6GM68 whole entry): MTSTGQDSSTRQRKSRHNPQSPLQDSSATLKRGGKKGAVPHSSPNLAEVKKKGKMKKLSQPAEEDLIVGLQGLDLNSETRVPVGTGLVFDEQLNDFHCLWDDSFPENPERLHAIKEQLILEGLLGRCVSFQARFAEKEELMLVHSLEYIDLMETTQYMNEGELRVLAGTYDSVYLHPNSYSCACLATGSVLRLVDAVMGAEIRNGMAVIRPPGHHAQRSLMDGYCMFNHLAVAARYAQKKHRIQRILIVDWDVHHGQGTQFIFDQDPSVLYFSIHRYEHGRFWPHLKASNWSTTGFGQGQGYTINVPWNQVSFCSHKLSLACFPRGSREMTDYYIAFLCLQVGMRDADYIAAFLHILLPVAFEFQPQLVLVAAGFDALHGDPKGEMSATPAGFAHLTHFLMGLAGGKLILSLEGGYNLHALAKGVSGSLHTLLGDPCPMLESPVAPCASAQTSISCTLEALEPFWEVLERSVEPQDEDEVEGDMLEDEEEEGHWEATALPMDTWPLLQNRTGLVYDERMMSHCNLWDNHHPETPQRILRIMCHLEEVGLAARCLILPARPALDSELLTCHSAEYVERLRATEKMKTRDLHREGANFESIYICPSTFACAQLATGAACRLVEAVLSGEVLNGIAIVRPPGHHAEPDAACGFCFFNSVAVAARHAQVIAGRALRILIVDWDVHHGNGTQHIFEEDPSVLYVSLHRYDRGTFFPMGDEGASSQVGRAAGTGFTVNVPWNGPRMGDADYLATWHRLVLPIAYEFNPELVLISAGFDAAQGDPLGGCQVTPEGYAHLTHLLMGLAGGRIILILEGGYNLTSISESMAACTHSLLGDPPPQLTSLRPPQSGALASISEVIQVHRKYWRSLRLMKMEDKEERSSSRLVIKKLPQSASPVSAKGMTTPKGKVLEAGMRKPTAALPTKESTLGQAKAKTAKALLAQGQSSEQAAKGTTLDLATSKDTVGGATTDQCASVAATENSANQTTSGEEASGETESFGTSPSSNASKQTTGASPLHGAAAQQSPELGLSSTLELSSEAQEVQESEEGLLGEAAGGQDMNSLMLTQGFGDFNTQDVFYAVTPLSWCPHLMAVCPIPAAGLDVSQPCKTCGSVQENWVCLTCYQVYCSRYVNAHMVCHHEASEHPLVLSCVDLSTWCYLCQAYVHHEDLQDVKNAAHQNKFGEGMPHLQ

With `CCCCCN(Cc1ccc(C(=O)NO)cc1)CC1CCC2CC1C2(C)C` (stereo not shown) [Example 24, 4-((((6,6-dimethylbicyclo[3.1.1]heptan-2-yl)methyl)(pentyl)amino)methyl)-N-hydroxybenzamide], the IC50 on HDAC6 [1] was found to be 1190 nM.
On the same count and under the same terms, as for `CCC(NCc1ccc(C(=O)NO)cc1)C12CC3CC(CC(C3)C1)C2` (stereo not shown) [Example 21, 4-(((1-((3r,5r,7r)-adamantan-1-yl)propyl)amino)methyl)-N-hydroxybenzamide], the figure is 213 nM.
With `O=C(NO)c1ccc(CNCC23CC4CC(CC(C4)C2)C3)cc1` [Example 17, 4-(((((3r,5r,7r)-adamantan-1-yl)methyl)amino)methyl)-N-hydroxybenzamide], the IC50 on HDAC6 [1] was found to be 35 nM.
With `CC1(C)C2CCC(CNCc3ccc(C(=O)NO)cc3)C1C2` (stereo not shown) [Example 23, 4-((((6,6-dimethylbicyclo[3.1.1]heptan-2-yl)methyl)amino)methyl)-N-hydroxybenzamide], the IC50 at HDAC6 [1] is 149 nM.
Still for that read-out and setting: as for `O=C(NO)c1cc(F)c(CNCC23CC4CC(CC(C4)C2)C3)c(F)c1` [Example 9, 4-((((Adamantan-1-yl)methyl)amino)methyl)-3,5-difluoro-N-hydroxybenzamide], the figure is 13.6 nM.
In the case of `O=C(NO)c1ccc(CNCC23CC4CC(CC(C4)C2)C3)c(Cl)c1` [Example 14, 4-((((adamantan-1-yl)methyl)amino)methyl)-3-chloro-N-hydroxybenzamide], on HDAC6 [1], the IC50 is 74.8 nM.
`CN1CCc2c(c3ccccc3n2Cc2ccc(C(=O)NO)cc2)C1` [Tubastatin A]: the “amount of bound radioactivity (radiolabeled Example 2) on rat brain slices” value at HDAC6 [2] is given as “reduce the amount of bound radioactivity to the same background as 10 μM Example 1”. The “Brain-penetrant?” value in data set [3] was “+/−”. Besides, the “Histone acetylation (H3K9 and H4K12)” value in data set [4] is reported as “remained unaltered”. The “amount of cellular acetyl-α-Tubulin” value in data set [4] (ACY1215 5 μM) is on record as “increased”.
Regarding `O=C(NO)c1ccc(CNC23CC4CC(CC(C4)C2)C3)cc1` [Example 18, 4-((((3s,5s,7s)-adamantan-1-yl)amino)methyl)-N-hydroxybenzamide], the IC50 on HDAC6 [1] was found to be 1380 nM.
The same measure, in the same setting: as for `O=C(NO)c1ccc(CNCC23CC4CC(CC(C4)C2)C3)c(Br)c1` [Example 15, 4-((((adamantan-1-yl)methyl)amino)methyl)-3-bromo-N-hydroxybenzamide], the figure is 59.9 nM.
As to `CCC(N(C)Cc1ccc(C(=O)NO)cc1)C12CC3CC(CC(C3)C1)C2` (stereo not shown) [Example 22, 4-(((1-((3r,5r,7r)-adamantan-1-yl)propyl)(methyl)amino)methyl)-N-hydroxybenzamide], on HDAC6 [1], the IC50 is 121 nM.
With `CN(Cc1ccc(C(=O)NO)cc1[18F])CC12CC3CC(CC(C3)C1)C2` [Example 2, 4-((((Adamantan-1-yl)methyl)(methyl)amino)methyl)-3-[^18F]fluoro-N-hydroxybenzamide], in “PET/CT imaging in rats” (radiotracer, PET), the “brain uptake and retention” value is on record as “excellent”. Further, the “off-rate in preclinical PET” value in the data set “PET/CT imaging in rats” (rat, in vivo) was “slow”.
With `CC(CC12CC3CC(CC(C3)C1)C2)NCc1ccc(C(=O)NO)cc1` (stereo not shown) [Example 19, 4-(((1-(adamantan-1-yl)propan-2-yl)amino)methyl)-N-hydroxybenzamide], on HDAC6 [1], the IC50 amounted to 323 nM.
Same read-out and setting: the figure for `O=C(NO)c1ccc(CNCC2CCCCC2)cc1` [Example 25, 4-(((cyclohexylmethyl)amino)methyl)-N-hydroxybenzamide] is 84 nM; for `O=C(NO)c1ccc(CNCC23CC4CC(CC(C4)C2)C3)c(F)c1` [Example 16, 4-(((((3r,5r,7r)-adamantan-1-yl)methyl)amino)methyl)-3-fluoro-N-hydroxybenzamide] it is 12 nM.
For the compound `O=C(CCCCCCNC(=O)c1cnc(N(c2ccccc2)c2ccccc2)nc1)NO` [ACY-1215, ricolinostat], in data set [3], the “Brain-penetrant?” value is listed as “−”. Besides, in data set [4] (ACY1215 5 μM), the “acetylation of H4K12” value is reported as “significantly increased” and the “amount of cellular acetyl-α-Tubulin” value was “increased”.
Turning to `O=C(NO)c1ccc(CNCC23CC4CC(CC(C4)C2)C3)nc1` [Example 13, 6-((((adamantan-1-yl)methyl)amino)methyl)-N-hydroxynicotinamide], the IC50 on HDAC6 [1] was 26.7 nM.
Same read-out and setting: the figure for `O=C(NO)c1ccc(CNCC23CC4CC(CC(C4)C2)C3)c(C(F)(F)F)c1` [Example 10, 4-((((adamantan-1-yl)methyl)amino)methyl)-3-trifluoromethyl-N-hydroxybenzamide] is 1020 nM; for `Cc1cc(C(=O)NO)ccc1CNCC12CC3CC(CC(C3)C1)C2` [Example 11, 4-((((adamantan-1-yl)methyl)amino)methyl)-3-methyl-N-hydroxybenzamide] it is 574 nM.
For the compound `CC(=O)Nc1ccc(C(=O)Nc2ccccc2N)cc1` [CI-994, tacedinaline], in data set [4], the “Histone acetylation (H3K9 and H4K12)” value was “significantly increased”. The “amount of cellular acetyl-α-Tubulin” value in data set [4] (ACY1215 5 μM) is reported as “did not increase”.
Regarding `O=C(NO)c1ccc(CNCC23CC4CC(CC(C4)C2)C3)cc1F` [Example 8, 4-((((Adamantan-1-yl)methyl)amino)methyl)-2-fluoro-N-hydroxybenzamide], the IC50 on HDAC6 [1] was determined as 89 nM.
Same read-out and setting: the figure for `CN(Cc1ccc(C(=O)NO)cc1)CC12CC3CC(CC(C3)C1)C2` [Example 12, 4-(((((3r,5r,7r)-adamantan-1-yl)methyl)(methyl)amino)methyl)-N-hydroxybenzamide] is 81 nM.
